The subject of the assay is A-549 cells. The assay is described as follows: Apoptosis assay of A-549 cells by flow cytometry (in vitro cytotoxic activity). The format is cell-based. Here is the method:
The apoptosis of A-549 cells was analyzed by flow cytometry (FIG. 2).
(A flow cytometer gives signals particle by particle.)

Results on one molecule are retold here after patent publication US20250242040A1, “ALBUMIN CONJUGATE, PREPARATION METHOD THEREFOR AND USE THEREOF” (Suzhou KangDeRui Pharmaceutical, Ltd., priority 2023, published 2025).

Each structure is given as a SMILES string. Non-standard residues stand in square brackets, D forms with d. Residues, ends and D or L forms follow the SMILES beside them. Dolaproine = CO[C@@H]([C@@H]1CCCN1)[C@@H](C)C(=O)O; Dil = CC[C@H](C)[C@H](NC)[C@@H](CC(=O)O)OC; NMeV = CN[C@H](C(=O)O)C(C)C

Take `CC[C@H](C)[C@@H]([C@@H](CC(=O)N1CCC[C@H]1[C@H](OC)[C@@H](C)C(=O)N[C@@H](Cc1ccccc1)C(=O)O)OC)N(C)C(=O)[C@@H](NC(=O)[C@@H](NC)C(C)C)C(C)C` [MMAF, monomethyl auristatin F] (H-[NMeV]V[Dil][Dolaproine]F-OH): the apoptosis efficiency was determined as 12.3%.
